Source: patent US20140303082A1, “SELECTIVE GPCR LIGANDS” (Medical Research Council, priority 2011, published 2014)
Substitutions are numbered along the chain they refer to. Where a SMILES comes first, the peptide text is derived from it. Where no end group is shown, it is not given here.

How the values were obtained:
AT2R wild type = test: Radioligand binding assays (saturation and competition), HEK293T membranes
Protocol: (§1) Cell culture and transient transfection. HEK293T cells were maintained at 37° C. in Dulbecco's modified Eagle's medium (DMEM) supplemented with 10% (v/v) fetal bovine serum (FBS), 2 mM glutamine, 100 U/ml penicillin, and 100 μg/ml streptomycin. Cells were seeded into 10 cm dish and 24 hours later were transfected with either AT1aR (pcDNA3.1) or AT2R (pcDNAI/Amp) using GeneJuice transfection reagent according to the manufacturer's instructions. Cells were harvested 48 hours after transfection. A pellet of transfected HEK293T cells (2×10^6 cells) was resuspended in ice-cold 0.5 ml binding buffer (50 mM Tris-HCl pH 7.4, 100 mM NaCl, 10 mM MgCl2, 1 mM EDTA, 0.2% BSA and 0.025% Bacitracin) containing protease inhibitors (Complete™, Roche). The cells were transferred to a 1.5 ml microcentrifuge tube and subjected to two cycles of freeze-thawing. The lysed cells were sheared by passaging seven times through a 26-gauge needle and the crude membranes were pelleted by ultracentrifugation (60 min, 120,000×g, 4° C.). The crude membranes were then resuspended in a final volume of 0.2 ml ice-cold binding buffer containing protease inhibitors corresponding to a protein concentration 3.3 μg/μl as determined by the amido black protein assay^45.
(§2) Radioligand binding assays. […] Non-specific binding was determined in presence of 6 μM cold AII. […] Samples were incubated for 2 hours at 4° C. Receptor-bound and free radioligand were separated by filtration through Whatman GF/B filters, pre-soaked with 0.3% polyethylamine. The filters were washed with 5 ml of ice-cold binding buffer and transferred to scintillation tubes. Radioactivity was counted on a Beckman LS6000 liquid scintillation counter and data were analyzed by non-linear regression using Prism software (GraphPad).

[1] = cis/trans isomer population in aqueous solution by NMR; type: physicochemical; settings: cis amide bond at residue 6-Pro7, aqueous solution
Source text: Peptide synthesis and sample preparation. The synthesis of the following peptides: AII (D^1-R^2—V^3—Y^4—I^5—H^6—P^7—F^8); [Y]^6-AII (D^1-R^2—V^3—Y^4—I^5—Y^6—P^7—F^8); [4-OPO3H2—F]^6-AII, (D^1-R^2—V^3—Y^4—I^5-(4-OPO3H2—F)^6—P^7—F^8), [F]^6-AII, (D^1-R^2—V^3—Y^4—I^5—F^6—P^7—F^8) and [4-NO2—F]^6-AII, (D^1-R^2—V^3—Y^4—I^5-(4-NO2—F)^6—P^7—F^8) was achieved using Fmoc/tBu methodology. 2-Chlorotrityl chloride resin and N^α-Fmoc (9-fluorenylmethyloxycarbonyl) amino acids were used for the synthesis. Peptide purity was assessed by analytical HPLC (Nucleosil-120 C18, reversed phase, 250×4.0 mm), mass spectrometry (FABMS, ESIMS) and amino acid analysis. The samples were prepared for NMR spectroscopy by dissolving the peptide in 0.01 M KPi buffer (pH=4), containing 0.02 M KCl. 2,2-dimethyl-2-sila-pentane sulfonate (DSS) was added to a concentration of 1 mM as an internal chemical shift reference. Peptide concentration was commonly 4 mM in 90% ^1H2O/10% ^2H2O. Trace amounts of NaN3 were added as a preservative.
Inter-proton distances for AII were derived by measuring cross-peak intensities in the NOESY spectra. Intensities were calibrated to give a set of distance constrains using the NMRVIEW software package. NOEs cross peaks were separated into three distance categories according to their intensity. […]

AT1aR [2] = target: T1, AT1aR (Rattus norvegicus, UniProt P25095); test: Radioligand binding assays (saturation and competition), HEK293T membranes; settings: for Ki: competition vs 2 nM [125I]-AII, 2 hours on ice, Cheng and Prusoff, receptor printed AT1R
T1 construct: expressed in transfected cells; host or cells: HEK293T, transient, crude membranes
T1 sequence (P25095 1-359): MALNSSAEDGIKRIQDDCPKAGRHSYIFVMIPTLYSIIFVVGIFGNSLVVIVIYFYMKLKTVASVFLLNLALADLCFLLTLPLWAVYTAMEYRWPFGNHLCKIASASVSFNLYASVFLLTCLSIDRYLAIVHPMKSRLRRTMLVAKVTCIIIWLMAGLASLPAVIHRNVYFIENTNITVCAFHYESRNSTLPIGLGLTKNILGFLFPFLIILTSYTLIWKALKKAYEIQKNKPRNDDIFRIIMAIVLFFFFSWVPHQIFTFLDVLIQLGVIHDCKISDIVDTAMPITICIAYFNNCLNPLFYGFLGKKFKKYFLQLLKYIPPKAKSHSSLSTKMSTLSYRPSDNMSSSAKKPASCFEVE
Protocol: as §1, §2

AT2R-F272A = target: T2, AT2R-F272A (Homo sapiens, UniProt P50052, F272A); test: Radioligand binding assays, AT2R mutant; settings: competition vs 2 nM [125I]-AII, 2 hours on ice, Cheng and Prusoff
T2 construct: expressed in transfected cells; host or cells: HEK293T, transient, crude membranes
T2 sequence (P50052 1-363 F272A): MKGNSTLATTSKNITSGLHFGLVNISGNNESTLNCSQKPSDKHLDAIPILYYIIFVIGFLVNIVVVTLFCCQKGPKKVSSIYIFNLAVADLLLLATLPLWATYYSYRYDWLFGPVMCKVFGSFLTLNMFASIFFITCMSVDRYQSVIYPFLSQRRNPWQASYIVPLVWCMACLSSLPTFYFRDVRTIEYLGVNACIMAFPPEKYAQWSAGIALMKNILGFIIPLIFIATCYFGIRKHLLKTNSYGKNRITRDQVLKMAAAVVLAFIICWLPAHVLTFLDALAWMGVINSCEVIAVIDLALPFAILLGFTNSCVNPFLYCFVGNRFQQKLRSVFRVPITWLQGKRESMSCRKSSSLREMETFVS
Protocol: (§3) Mutagenesis. AT2R mutants were generated as described elsewhere^44.
as §1, §2

AT2R-F272H = target: T3, AT2R-F272H (Homo sapiens, UniProt P50052, F272H); test: Radioligand binding assays, AT2R mutant; settings: competition vs 2 nM [125I]-AII, 2 hours on ice, Cheng and Prusoff
T3 construct: expressed in transfected cells; host or cells: HEK293T, transient, crude membranes
T3 sequence (P50052 1-363 F272H): T2 sequence (P50052 1-363 F272A) with A272H
Protocol: as §3, §1, §2

AT2R-Y189A = target: T4, AT2R-Y189A (Homo sapiens, UniProt P50052, Y189A); test: Radioligand binding assays, AT2R mutant; settings: competition vs 2 nM [125I]-AII, 2 hours on ice, Cheng and Prusoff
T4 construct: expressed in transfected cells; host or cells: HEK293T, transient, crude membranes
T4 sequence (P50052 1-363 Y189A): T2 sequence (P50052 1-363 F272A) with Y189A, A272F
Protocol: as §3, §1, §2

AT2R-Y189N = target: T5, AT2R-Y189N (Homo sapiens, UniProt P50052, Y189N); test: Radioligand binding assays, AT2R mutant; settings: competition vs 2 nM [125I]-AII, 2 hours on ice, Cheng and Prusoff
T5 construct: expressed in transfected cells; host or cells: HEK293T, transient, crude membranes
T5 sequence (P50052 1-363 Y189N): T2 sequence (P50052 1-363 F272A) with Y189N, A272F
Protocol: as §3, §1, §2

AT1aR [3] = settings: relative to AII; cited from earlier work
AT2R = target: T6, AT2R (Homo sapiens, UniProt P50052); settings: relative to AII; cited from earlier work
T6 sequence (P50052 1-363): T2 sequence (P50052 1-363 F272A) with A272F

lower affinity for AT2R in comparison to [Y]^6-AII (AT2R wild type; unpublished data)	Molecule	%cis [1] [%]	Ki (AT1aR [2]) [nM]	Ki (AT2R-F272A) [nM]	Ki (AT2R-F272H) [nM]	Ki (AT2R-Y189A) [nM]	Ki (AT2R-Y189N) [nM]	other results
more than 50 times	D^1-R^2—V^3—Y^4—I^5—F^6—P^7—F^8 (DRVYIFPF; Angiotensin-2; UniProt P01019 25-32, looked up, variant H6F) [[F]^6-AII, AII analogue with phenylalanine at position 6]	~20	–	–	–	–	–	affinity for AT1aR compared with AT2R (in words) (AT2R wild type; unpublished data): same affinity for both AT1aR and AT2R
300 times	D^1-R^2—V^3—Y^4—I^5-(4-NO2—F)^6—P^7—F^8 [[4-NO2—F]^6-AII]	~5	–	–	–	–	–	binding / affinity for AT1aR (in words) (AT1aR [2]): high affinity (nM)
–	DRVYIYPF [[Y]^6-AII]	–	> 2500	16	16	12	10	–
–	CC[C@H](C)[C@H](NC(=O)[C@H](Cc1ccc(O)cc1)NC(=O)[C@@H](NC(=O)[C@H](CCCNC(=N)N)NC(=O)[C@@H](N)CC(=O)O)C(C)C)C(=O)N[C@@H](Cc1ccc(OP(=O)(O)O)cc1)C(=O)N1CCC[C@H]1C(=O)N[C@@H](Cc1ccccc1)C(=O)O [[4-OPO3H2—F]^6-AII, D^1-R^2—V^3—Y^4—I^5-(4-OPO3H2—F)^6—P^7—F^8] (HELM PEPTIDE1{D.R.V.Y.I.[O=C([C@H](Cc1ccc(OP(=O)(O)O)cc1)N[*:1])[*:2]].P.F}$$$$V2.0)	–	> 2500	250	21	51	200	–
–	Pro7Gly mutation in AII: literature AII analogue with Pro7 replaced by Gly (ref 16) (DRVYIHGF; Angiotensin-2; UniProt P01019 25-32, looked up, variant P7G)	–	–	–	–	–	–	lower affinity for AT1aR (AT1aR [3]): 150 times; affinity for the AT2R (in words) (AT2R): almost retained its affinity
–	CC[C@H](C)[C@H](NC(=O)[C@H](Cc1ccc(O)cc1)NC(=O)[C@@H](NC(=O)[C@H](CCCNC(=N)N)NC(=O)[C@@H](N)CC(=O)O)C(C)C)C(=O)N[C@@H](Cc1c[nH]cn1)C(=O)N1CCC[C@H]1C(=O)N[C@@H](Cc1ccccc1)C(=O)O [[^125I]-AII, reference compound]	–	–	–	–	–	–	Kd (AT2R wild type; saturation assay, 2 hours on ice): 2.3 ± 0.3 nM
